Results as given in patent publication US8530680B2, “System and method for controlling growth of microorganisms with brominated furanones” (Syracuse University, priority 2008, dated 2013).
“Also recorded” adds a separate entry of the source.

Key:
[1] = tested on: Trametes versicolor strain TV57MAD277; assay: Fungal growth on MEA plates with furanone; format: cell-based; design: key to growth on plate, TV57MAD277: −: No growth was observed; +: normal growth was seen; details: for growth on plate, TV57MAD277: 60 μg/mL, 7 days at 30° C.; for growth inhibition test, inhibitory concentration, TV57MAD277: tested at 1, 5, 30, 60 μg/mL, 7 days
Procedure: (§1) This Example examines the effect of brominated furanones on the growth of fungi associated with damage to building material. Six fungal strains were the subject of these experiments; Gloeophyllum trabeum (strains GT598 and GT599), Chaetomium globosum (wildtype strain and CG572), and Trametes versicolor (strains TV7B2-59 and TV57MAD277). The species were developed on 2% Malt-Extract Agar (MEA) plates and stored inverted at 4° C. The stocks were refreshed by streaking new plates every two months.
(§2) The brominated and non-brominated furanones were added to MAE agar plates at different concentrations. The brominated furanones were dissolved in either ethanol (“EtOH”) or methanol (“MeOH”) as stock solutions, as shown in Table 5. The non-brominated furanones were purchased from Sigma (St. Louis, Mo.). The furanone stocks were stored at 4° C.
(§3) MAE agar plates containing the same amounts of ethanol/methanol were also prepared as negative controls to eliminate any solvent effects. The plates were prepared using either 90 mm or 60 mm petri dishes and were stored inverted at 4° C. until use.
(§4) Different concentrations of furanones were studied to compare their antifungal activities. The plates were inoculated with the six fungal strains using a platinum loop and were incubated upside down at 30° C. for 7 days to monitor the growth. The initial screening was performed using a single 60 μg/mL furanone concentration.

[2] = tested on: P. aeruginosa strain PAO1; assay: Microplate based planktonic growth assay of P. aeruginosa; format: cell-based, Pseudomonas aeruginosa; details: for reduction of specific growth rate compared to furanone-free control: planktonic growth
Procedure: The antimicrobial activities of furanones on the planktonic growth of P. aeruginosa strain PAO1 was examined using a microplate based growth assay. An overnight culture of the strain grown in LB medium at 30° C. was used to inoculate M63 minimal medium supplemented with furanones at 0, 30 or 60 μg/mL to an optical density at 600 nm (OD600) of 0.05 in 96-well plates. The plates were then incubated at 30° C. with shaking at 200 rpm. The reading of OD600 was measured every 60 minutes for six hours using a microplate reader (ELx808, BioTek Instruments). Six replicates were tested for every sample. The synthesis of the brominated furanones, the structures of which are shown in FIGS. 1A and 1B, was according to Example 1.

[3] = tested on: P. aeruginosa strain PAO1 biofilm formation; assay: Microplate-based biofilm assay (crystal violet, OD540) of P. aeruginosa; format: cell-based, Pseudomonas aeruginosa; details: 24 hours
Procedure: A microplate-based biofilm assay was used to further investigate whether furanones inhibit biofilm formation of P. aeruginosa strain PAO1. For this biofilm assay the strain was grown at 30° C. without shaking in M63 minimal medium containing 13.6 g/L KH2PO4, 2 g/L (NH4)2SO4, 0.5 mg/L FeSO4, 0.12 g/L MgSO4, 5 g/L vitamin free casamino acids and 5 g/L glucose (pH 7.0). The synthesis of the brominated furanones, the structures of which are shown in FIGS. 1A and 1B, was according to Example 1.
The overnight culture of P. aeruginosa was used to inoculate fresh M63 medium supplemented with furanones (0, 30 or 60 μg/mL) to an OD600 of 0.05 in 96-well plates. Four replicates were tested for each condition. The plates were incubated at 30° C. without shaking for 24 hours. The biofilm mass was quantified by following the protocol described previously. Briefly, the planktonic cells were carefully removed by pipetting and the plates with biofilms were washed three times with deionized H2O and dried by gently patting on a piece of paper towel. To quantify biofilms, the plates were stained with 0.1% crystal violet and incubated for 20 minutes at room temperature. The plates were then washed three times with deionized H2O to remove extra dyes. An OD540 was measured to quantify the biofilm on the bottom of each well.

[4] = tested on: Gloeophyllum trabeum strain GT599; assay: Fungal growth on MEA plates with furanone; format: cell-based; design: key to growth on plate, GT599: −: No growth was observed; +: normal growth was seen; details: for growth on plate, GT599: 60 μg/mL, 7 days at 30° C.; for growth inhibition test, inhibitory concentration, GT599: tested at 1, 5, 30, 60 μg/mL, 7 days
Procedure: as §1, §2, §3, §4

[5] = tested on: Trametes versicolor strain TV7B2-59; assay: Fungal growth on MEA plates with furanone; format: cell-based; design: key to growth on plate, TV7B2-59: −: No growth was observed; +: normal growth was seen; details: for growth on plate, TV7B2-59: 60 μg/mL, 7 days at 30° C.; for growth inhibition test, inhibitory concentration, TV7B2-59: tested at 1, 5, 30, 60 μg/mL, 7 days
Procedure: as §1, §2, §3, §4

[6] = tested on: Chaetomium globosum CG572; assay: Fungal growth on MEA plates with furanone; format: cell-based; design: key to growth on plate, CG572: −: No growth was observed; +: normal growth was seen; details: for growth on plate, CG572: 60 μg/mL, 7 days at 30° C.; for growth inhibition test, inhibitory concentration, CG572: tested at 1, 5, 30, 60 μg/mL, 7 days
Procedure: as §1, §2, §3, §4

[7] = tested on: Gloeophyllum trabeum strain GT598; assay: Fungal growth on MEA plates with furanone; format: cell-based; design: key to growth on plate, GT598: −: No growth was observed; +: normal growth was seen; details: for growth on plate, GT598: 60 μg/mL, 7 days at 30° C.; for growth inhibition test, inhibitory concentration, GT598: tested at 1, 5, 30, 60 μg/mL, 7 days
Procedure: as §1, §2, §3, §4

SMILES | growth on plate, TV57MAD277 [1] | growth inhibition test, inhibitory concentration, TV57MAD277 [1] [µg/mL] | inhibitory effect on planktonic growth ([2]; 30 μg/mL) | reduction of specific growth rate compared to furanone-free control ([2]; 60 μg/mL) [%] | inhibition of biofilm formation ([3]; 30 μg/mL) | inhibition of biofilm formation ([3]; 60 μg/mL) | growth on plate, GT599 [4] | growth inhibition test, inhibitory concentration, GT599 [4] [µg/mL] | growth on plate, TV7B2-59 [5] | growth inhibition test, inhibitory concentration, TV7B2-59 [5] [µg/mL] | growth on plate, CG572 [6] | growth inhibition test, inhibitory concentration, CG572 [6] [µg/mL] | growth on plate, GT598 [7] | growth inhibition test, inhibitory concentration, GT598 [7] [µg/mL] | inhibitory effect on planktonic growth ([2]; 30 and 60 μg/mL (up to 60 μg/mL)) | inhibition at 30 µg/mL ([3]; Pseudomonas aeruginosa, PAO1, 30 μg/mL, read-out: inhibition of biofilm formation compared to 24-hour biofilm mass of furanone-free control) [%] | inhibition at 60 µg/mL ([3]; Pseudomonas aeruginosa, PAO1, 60 μg/mL, read-out: inhibition of biofilm formation compared to 24-hour biofilm mass of furanone-free control) [%] | reduction of specific growth rate compared to furanone-free control ([2]; 30 μg/mL) [%]
O=C1OC(=C(Br)Br)C=C1C(Br)Br [BF10, 3-(dibromomethyl)-5-(dibromomethylene)furan-2-one] | − | 5 | did not exhibit significant inhibitory effects | 10 | didn't show apparent inhibition | significantly inhibited; also recorded: inhibited biofilm formation completely | − | 30 | − | 30 | − | 30 | − | 30 |  |  |  | 
CCCCC1=C(Br)/C(=C/Br)OC1=O [BF1, 4-bromo-5Z-(bromomethylene)-3-butylfuran-2-one] | − | 5 |  |  |  |  | − | 30 | − | 5 | − | 30 | − | 30 |  |  |  | 
CC1=C(Br)/C(=C/Br)OC1=O [BF8, 4-bromo-5Z-(bromomethylene)-3-methylfuran-2-one] | − | 30 | did not exhibit significant inhibitory effects |  | significantly inhibited | significantly inhibited | − | 5 | − | 30 | − | 30 | − | 5 | did not inhibit; also recorded: no apparent effect | 86.1 ± 7.6 | 93.8 ± 3.7 | 
CC1=CC(=C(Br)Br)OC1=O [BF9, 5-(dibromomethylene)-3-methylfuran-2-one] | − | 5 |  | 42.7 | significantly inhibited | significantly inhibited | − | 60 | − | 5 | − | 60 | − | 60 |  |  |  | 29.3
